Experimental data taken from patent US9382295B2, “Cyclic depsipeptide compounds and their uses” (Cypralis Limited, priority 2012, dated 2016).
In brackets after ≈: the same amount, converted by molar mass. Read-outs that look alike come from different tables or passages of the source. Numbered stars: 1 amine (or outer) side, 2 acyl side, 3 side chain; on linkers, the order of the positions; unused ones are H or OH. Square brackets hold non-standard residues; d marks the D form. Peptide text beside a SMILES is read from it. X19 = C[C@H](CCN1CCCC(C(F)(F)F)C1)[C@@H](O)[C@H](C(=O)[*:2])N(C)[*:1]; X30 = C[C@H](CCN(C)Cc1nnn[nH]1)[C@@H](O)[C@H](C(=O)[*:2])N(C)[*:1]; X17 = C[C@H](CCN(C)CCc1ccccn1)[C@@H](O)[C@H](C(=O)[*:2])N(C)[*:1]; X12 = C[C@H](CCN(C)Cc1ccncc1)[C@@H](O)[C@H](C(=O)[*:2])N(C)[*:1]; X24 = C[C@H](CCN(C)CC1COCCO1)[C@@H](O)[C@H](C(=O)[*:2])N(C)[*:1]; X7 = C[C@H](CCN(C)Cc1ccnn1C)[C@@H](O)[C@H](C(=O)[*:2])N(C)[*:1]; X34 = C[C@H](CCN1CCN(C)CC1)[C@@H](O)[C@H](C(=O)[*:2])N(C)[*:1]; d(aThr) = C[C@@H](O)[C@@H](N)C(=O)O; NMeL = CN[C@@H](CC(C)C)C(=O)O; dNMeL = CN[C@H](CC(C)C)C(=O)O; dNMeV = CN[C@@H](C(=O)O)C(C)C; Hiv = CC(C)[C@H](O)C(=O)O; Sar = CNCC(=O)O

Experiments:
cyclophilin A (Cyp A) = biological target: T1, cyclophilin A (Cyp A) (Homo sapiens, UniProt P62937); test: Protease-free PPIase assay, cyclophilin A; format: biochemical
T1 construct: purchased Sigma C3805
T1 sequence (P62937 whole entry): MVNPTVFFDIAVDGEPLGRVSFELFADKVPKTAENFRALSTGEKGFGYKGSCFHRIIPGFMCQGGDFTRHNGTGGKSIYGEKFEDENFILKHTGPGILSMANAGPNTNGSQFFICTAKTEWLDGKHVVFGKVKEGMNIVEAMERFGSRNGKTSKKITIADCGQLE
Experimental: (§1) The protease-free PPIase assay measures the rate of cis to trans conversion of a peptide substrate catalyzed by the enzymes cyclophilin A and cyclophilin D. Addition of a cyclophilin inhibitor (e.g., a test compound) slows the catalyzed rate and a Ki value is obtained. […] 35 mM HEPES pH 7.8, filtered through a 0.2 μm filter. 50 μM DTT was added prior to use each day and then the buffer was stored on ice. Human recombinant cyclophilin A (Cyp A) (Sigma C3805) enzyme was diluted to 1 μM with enzyme dilution buffer (20 mM HEPES pH 7.8, 40% glycerol, 50 μM DTT and 1 μM BSA) and stored at -20° C. Succinimide-[…]) (from Bachem AG, L-1400), 20 mg/ml prepared in 0.5 M LiCl in trifluoroethanol. All readings were taken with an Agilent 8453 Spectrophotometer which consists of a cuvette holder, stirrer and chiller to maintain a stirred cuvette temperature of 10.0±0.1° C. The temperature is monitored by the use of temperature probe. […] The inhibitor was diluted in 100% DMSO, and then added to the assay to a maximum final concentration of 0.5% DMSO in the assay. A blank spectrum was obtained, then 3 μL of enzyme was added (2 nM final concentration) and then 3 μL substrate (60 μM final concentration) added. The absorbance was measured at 330 nm for 300 s or 500 s for blank runs (NOTE: the substrate must be added in one quick injection and the measurements started immediately to minimize mixing errors). A first order rate equation was fitted to the absorbance data, for each concentration of inhibitor, to obtain the rate constant (the first 10 to 15 seconds were excluded as mixing causes errors in this portion of curve). The catalytic rate was calculated from the enzymatic rate constant minus the background rate constant. An exponential curve was generated using the catalytic rate constants versus the inhibitor concentration to obtain the Ki value for the inhibitor. The Ki value is indicative of the binding affinity between the test compound and cyclophilin A or cyclophilin D.

[1] = Water solubility assay (pH 7.8 buffer); format: physicochemical
Experimental: ***Water Solubility Assay (Measured in pH 7.8 Buffer)
The onset of precipitation, if it occurred, was detected by an increase in absorbance at 650 nm.
Assay Buffer: 35 mM HEPES pH 7.8
Stock solutions of Control and Test Compounds: 10 mM in 100% DMSO
10 mM stock solutions of control and test compounds were prepared in 100% DMSO. A series of dilutions were prepared from the stock in DMSO so that the final concentrations in the assay were 0, 3.33, 10, 25, 50, 75 and 100 μM and DMSO was limited to 1%.
Assay buffer (247.5 μl) was placed into flat bottomed transparent 96-well plate. For blank samples DMSO (2.5 μl) was added. For test and control samples 2.5 μl of the appropriate DMSO dilution stocks were added to the appropriate well. All test and control compounds were performed in triplicate.
The plates were sealed with adhesive plate seal and shaken at 250 rpm at 25° C. for 18 h on a plate shaker.
After incubation the plate seals were taken off and any bubbles observed in wells removed. The plates were read on a SpectraMaxM5 with a 5 s pre-shake at 650 nm.
Data files were transferred to the appropriate worksheet and the solubility range of the compounds was calculated from the data.
The values shown in the tables indicate the concentration in μM (micromolar) at which the compound remains in solution.

cyclophilin D (Cyp D) = cyclophilin D (Cyp D) (Homo sapiens, UniProt P30405); test: Protease-free PPIase assay, cyclophilin D; format: biochemical
cyclophilin D (Cyp D), sequence (P30405 30-207): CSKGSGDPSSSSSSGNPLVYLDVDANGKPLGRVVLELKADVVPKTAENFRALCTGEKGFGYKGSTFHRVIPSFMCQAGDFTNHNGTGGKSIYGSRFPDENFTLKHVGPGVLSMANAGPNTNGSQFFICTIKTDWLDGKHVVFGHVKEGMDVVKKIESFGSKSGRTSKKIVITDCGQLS
Experimental: as §1, with “ice.” for “ice. Human recombinant cyclophilin A (Cyp A) (Sigma C3805) enzyme was diluted to 1 μM with enzyme dilution buffer (20 mM HEPES pH 7.8, 40% glycerol, 50 μM DTT and 1 μM BSA) and stored at -20° C.”

[2] = protease-free PPIase assay, class symbols, read-out: CypA Ki
[3] = 35 mM HEPES buffer, 35 mM HEPES pH 7.8, 1% DMSO, 25° C., 18 h, concentration at which compound remains in solution, read-out: Solubility
[4] = protease-free PPIase assay, class symbols, read-out: CypD Ki

CO[C@H](C)[C@H]1NC(=O)[C@@H]([C@H](O)[C@H](C)CCN2CCOCC2)N(C)C(=O)[C@@H](C(C)C)N(C)C(=O)[C@@H](CC(C)C)NC(=O)[C@@H](CC(C)C)N(C)C(=O)[C@H](C(C)C)OC(=O)[C@@H](C)NC(=O)[C@@H](CC(C)C)N(C)C(=O)[C@@H](CC(C)C)NC(=O)[C@H](CC(C)C)N(C)C(=O)CN(C)C1=O (stereo in doubt) [Example 7, cyclo-[(3R,4R,5S)-4-(hydroxy)-3-methyl-5-(methylamino)-1-N-morpholino-hexanoic acid-(O-methyl-Thr)-Sar-MeLeu-Leu-MeLeu-Ala-D-Hiv-MeLeu-Leu-MeVal]]
Ki (cyclophilin A (Cyp A)): 0.025 to 0.1 µM
solubility at 18 h ([1]; pH 7.8): 50 to 75 µM (≈ 66 to 99.1 µg/mL)
Ki (cyclophilin D (Cyp D)): 0.001 to 0.025 µM

CC(C)C[C@@H]1C(=O)N[C@H](CC(C)C)C(=O)N(C)[C@H](C(C)C)C(=O)N(C)[C@H]([C@H](O)[C@H](C)CCN(C)Cc2ccncc2)C(=O)N[C@H]([C@@H](C)O)C(=O)N(C)CC(=O)N(C)[C@@H](CC(C)C)C(=O)N[C@H](CC(C)C)C(=O)N(C)[C@H](CC(C)C)C(=O)N[C@H](C)C(=O)O[C@@H](C(C)C)C(=O)N1C [Example 3, cyclo-[(3R,4R,5S)-4-(hydroxy)-3-methyl-5-(methylamino)-1-N-(methyl-pyridin-4-ylmethyl-amino)-hexanoic acid-Thr-Sar-MeLeu-Leu-MeLeu-Ala-D-Hiv-MeLeu-Leu-MeVal]] (cyclo([Hiv][dNMeL][dL][dNMeV][X12][d(aThr)][Sar][NMeL][dL][dNMeL][dA]))
Ki (cyclophilin A (Cyp A); [2]): 0.001 to 0.025 µM
solubility at 18 h [1, 3]: 50 to 75 µM (≈ 67.1 to 101 µg/mL)
Ki (cyclophilin D (Cyp D); [4]): 0.001 to 0.025 µM

CC(C)C[C@@H]1C(=O)N[C@H](CC(C)C)C(=O)N(C)[C@H](C(C)C)C(=O)N(C)[C@H]([C@H](O)[C@H](C)CCN(C)CCc2ccccn2)C(=O)N[C@H]([C@@H](C)O)C(=O)N(C)CC(=O)N(C)[C@@H](CC(C)C)C(=O)N[C@H](CC(C)C)C(=O)N(C)[C@H](CC(C)C)C(=O)N[C@H](C)C(=O)O[C@@H](C(C)C)C(=O)N1C [Example 4, cyclo-{(3R,4R,5S)-4-(hydroxy)-3-methyl-5-(methylamino)-1-N-[methyl-2-(pyridin-2-yl)-ethyl-amino]-hexanoic acid-Thr-Sar-MeLeu-Leu-MeLeu-Ala-D-Hiv-MeLeu-Leu-MeVal}] (cyclo([Hiv][dNMeL][dL][dNMeV][X17][d(aThr)][Sar][NMeL][dL][dNMeL][dA]))
Ki (cyclophilin A (Cyp A); [2]): 0.001 to 0.025 µM
solubility at 18 h [1, 3]: 25 to 50 µM (≈ 33.9 to 67.8 µg/mL)
Ki (cyclophilin D (Cyp D); [4]): 0.001 to 0.025 µM

CC(C)C[C@@H]1C(=O)N[C@H](CC(C)C)C(=O)N(C)[C@H](C(C)C)C(=O)N(C)[C@H]([C@H](O)[C@H](C)CCN(C)Cc2ccnn2C)C(=O)N[C@H]([C@@H](C)O)C(=O)N(C)CC(=O)N(C)[C@@H](CC(C)C)C(=O)N[C@H](CC(C)C)C(=O)N(C)[C@H](CC(C)C)C(=O)N[C@H](C)C(=O)O[C@@H](C(C)C)C(=O)N1C [Example 5, cyclo-{(3R,4R,5S)-4-(hydroxy)-3-methyl-5-(methylamino)-1-N-[methyl-(2-methyl-2H-pyrazol-3-ylmethyl)-amino]-hexanoic acid-Thr-Sar-MeLeu-Leu-MeLeu-Ala-D-Hiv-MeLeu-Leu-MeVal}] (cyclo([Hiv][dNMeL][dL][dNMeV][X7][d(aThr)][Sar][NMeL][dL][dNMeL][dA]))
Ki (cyclophilin A (Cyp A); [2]): 0.001 to 0.025 µM
solubility at 18 h [1, 3]: 50 to 75 µM (≈ 67.2 to 101 µg/mL)
Ki (cyclophilin D (Cyp D); [4]): 0.001 to 0.025 µM

CC(C)C[C@@H]1C(=O)N[C@H](CC(C)C)C(=O)N(C)[C@H](C(C)C)C(=O)N(C)[C@H]([C@H](O)[C@H](C)CCN(C)Cc2nnn[nH]2)C(=O)N[C@H]([C@@H](C)O)C(=O)N(C)CC(=O)N(C)[C@@H](CC(C)C)C(=O)N[C@H](CC(C)C)C(=O)N(C)[C@H](CC(C)C)C(=O)N[C@H](C)C(=O)O[C@@H](C(C)C)C(=O)N1C [Example 6, cyclo-{(3R,4R,5S)-4-(hydroxy)-3-methyl-5-(methylamino)-1-N-[methyl-(1H-tetrazol-5-ylmethyl)-amino]-hexanoic acid-Thr-Sar-MeLeu-Leu-MeLeu-Ala-D-Hiv-MeLeu-Leu-MeVal}] (cyclo([Hiv][dNMeL][dL][dNMeV][X30][d(aThr)][Sar][NMeL][dL][dNMeL][dA]))
Ki (cyclophilin A (Cyp A)): 0.001 to 0.025 µM
solubility at 18 h ([1]; pH 7.8): 25 to 50 µM (≈ 33.3 to 66.6 µg/mL)
Ki (cyclophilin D (Cyp D)): 0.001 to 0.025 µM

CC(C)C[C@@H]1C(=O)N[C@H](CC(C)C)C(=O)N(C)[C@H](C(C)C)C(=O)N(C)[C@H]([C@H](O)[C@H](C)CCN(C)CC2COCCO2)C(=O)N[C@H]([C@@H](C)O)C(=O)N(C)CC(=O)N(C)[C@@H](CC(C)C)C(=O)N[C@H](CC(C)C)C(=O)N(C)[C@H](CC(C)C)C(=O)N[C@H](C)C(=O)O[C@@H](C(C)C)C(=O)N1C (stereo partly drawn) [Example 8, cyclo-{(3R,4R,5S)-4-(hydroxy)-3-methyl-5-(methylamino)-1-N-([1,4]dioxan-2-ylmethyl-methyl-amino)-hexanoic acid-Thr-Sar-MeLeu-Leu-MeLeu-Ala-D-Hiv-MeLeu-Leu-MeVal}] (cyclo([Hiv][dNMeL][dL][dNMeV][X24][d(aThr)][Sar][NMeL][dL][dNMeL][dA]))
Ki (cyclophilin A (Cyp A); [2]): 0.025 to 0.1 µM
solubility at 18 h [1, 3]: > 100 µM
Ki (cyclophilin D (Cyp D); [4]): 0.001 to 0.025 µM

CC(C)C[C@@H]1C(=O)N[C@H](CC(C)C)C(=O)N(C)[C@H](C(C)C)C(=O)N(C)[C@H]([C@H](O)[C@H](C)CCN2CCCC(C(F)(F)F)C2)C(=O)N[C@H]([C@@H](C)O)C(=O)N(C)CC(=O)N(C)[C@@H](CC(C)C)C(=O)N[C@H](CC(C)C)C(=O)N(C)[C@H](CC(C)C)C(=O)N[C@H](C)C(=O)O[C@@H](C(C)C)C(=O)N1C (stereo partly drawn) [Example 9, cyclo-{(3R,4R,5S)-4-(hydroxy)-3-methyl-5-(methylamino)-1-N-[3-trifluoromethyl-piperidinyl]-hexanoic acid-Thr-Sar-MeLeu-Leu-MeLeu-Ala-D-Hiv-MeLeu-Leu-MeVal}] (cyclo([Hiv][dNMeL][dL][dNMeV][X19][d(aThr)][Sar][NMeL][dL][dNMeL][dA]))
Ki (cyclophilin A (Cyp A); [2]): 0.001 to 0.025 µM
solubility at 18 h [1, 3]: 10 to 25 µM (≈ 13.7 to 34.3 µg/mL)
Ki (cyclophilin D (Cyp D); [4]): 0.001 to 0.025 µM

CC(C)C[C@@H]1C(=O)N[C@H](CC(C)C)C(=O)N(C)[C@H](C(C)C)C(=O)N(C)[C@H]([C@H](O)[C@H](C)CCN2CCN(C)CC2)C(=O)N[C@H]([C@@H](C)O)C(=O)N(C)CC(=O)N(C)[C@@H](CC(C)C)C(=O)N[C@H](CC(C)C)C(=O)N(C)[C@H](CC(C)C)C(=O)N[C@H](C)C(=O)O[C@@H](C(C)C)C(=O)N1C [Example 32, cyclo-[(3R,4R,5S)-4-(hydroxy)-3-methyl-5-(methylamino)-1-N—(N′-methylpiperazine)-hexanoic acid-Thr-Sar-MeLeu-Leu-MeLeu-Ala-D-Hiv-MeLeu-Leu-MeVal]] (cyclo([Hiv][dNMeL][dL][dNMeV][X34][d(aThr)][Sar][NMeL][dL][dNMeL][dA]))
Ki (cyclophilin A (Cyp A)): 0.1 to 0.3 µM
Ki (cyclophilin D (Cyp D)): 0.025 to 0.1 µM
